Experimental data published in patent publication US4529720A, “Antibiotic from Streptomyces clavulicerus” (Beecham Group, p.l.c., priority 1974, dated 1985).
Where a name gives a salt, the structure may show the parent alone.

What was measured:
[1] = Hydrolysis of methyl ester in pH 7 phosphate buffer; assay type: physicochemical; details: 1 mg/ml, 37° C., 0.05M phosphate buffer pH 7, followed over 2 hours
Description: The reaction was followed by paper chromatography (bioautographic system). Using the butanol/ethanol/water system to follow the reaction over a period of 2 hours the zone of the methyl ester at Rf 0.79 decreased in size as the zone of clavulanic acid at Rf 0.12 increased.

bacteria = assay: Tests for antibacterial activity in broth (Example 32); assay type: cell-based; details: against bacteria resistant to these antibiotics
Staphylococcus aureus = assay: Antibacterial synergism, microtitre MIC (Example 42); assay type: cell-based; details: Table 6
[2] = test system: Staphylococcus aureus (Russell); assay: as above; assay type: cell-based
Klebsiella aerogenes A [3] = assay: Growth inhibition, alone and combined (description); assay type: cell-based; details: 5 μg/ml of clavulanic acid also present
Stability in human blood = assay type: in vitro ADME
[4] = test system: Klebsiella aerogenes E 70; assay: Antibacterial synergism, microtitre MIC (Example 42); assay type: cell-based; details: Table 8; method of Example 42
Klebsiella aerogenes A [5] = assay: as above; assay type: cell-based; details: Table 8; method of Example 42
Klebsiella aerogenes 62 = assay: as above; assay type: cell-based; details: Table 8; method of Example 42

COC(=O)[C@H]1/C(=C/CO)O[C@@H]2CC(=O)N21 [clavulanic acid methyl ester]
hydrolysis of the ester to clavulanic acid [1]: Slow conversion of the ester to clavulanic acid | hydrolysis of the ester to clavulanic acid ([1]; listed as methyl ester): slowly hydrolyse to clavulanic acid | antibacterial synergism in combination with ampicillin or cephaloridine (bacteria): marked antibacterial synergism

O=C(Cc1cccs1)N[C@@H]1C(=O)N2C(C(=O)[O-])=C(C[n+]3ccccc3)CS[C@H]12 [Cephaloridine, cephaloridine]
Minimum Inhibitory Concentrations, Cephaloridine in presence of 5 μg/ml clavulanic acid sodium salt (Staphylococcus aureus; in presence of 5 μg/ml clavulanic acid sodium salt): 3.7 µg/mL | Minimum Inhibitory Concentration of cephaloridine when synergist added at 1 μg/ml ([2]; clavulanic acid sodium salt at 1 μg/ml, compared with <0.03 μg/ml at 5 μg/ml, footnote of Table 6): Same value

CC1(C)S[C@@H]2[C@H](NC(=O)Cc3ccccc3)C(=O)N2[C@H]1C(=O)O [Benzylpenicillin, benzylpenicillin]
concentration of penicillin inhibiting growth when clavulanic acid is also present (Klebsiella aerogenes A [3]): less than 12.5 μg/ml

O=C(O)[C@H]1/C(=C/CO)O[C@@H]2CC(=O)N21 [clavulanic acid, Z-(2R,5R)-3-(β-hydroxyethylidene)-7-oxo-4-oxa-1-azabicyclo[3,2,0]heptane-2-carboxylic acid]
stability in human blood (Stability in human blood): high stability in human blood

O=C(O)[C@H]1/C(=C/CO)O[C@@H]2CC(=O)N21 [clavulanic acid sodium salt, 3-(β-hydroxyethylidine)-7-oxo-4-oxa-1-azabicyclo[3,2,0]heptane-2-carboxylic acid sodium salt]
Minimum Inhibitory Concentrations (Staphylococcus aureus; agent alone): 62 µg/mL | Minimum Inhibitory Concentrations ([2]; agent alone, Table 6): 15 µg/mL

CC1(C)S[C@@H]2[C@H](NC(=O)[C@H](N)c3ccccc3)C(=O)N2[C@H]1C(=O)O [Ampicillin, ampicillin]
M.I.C., Ampicillin + 5 μg/ml of Benzyl Ester of clavulanic acid [4]: 3.9 | M.I.C., Ampicillin + 5 μg/ml of Methyl Ester of clavulanic acid [4]: 3.9 | M.I.C., Ampicillin + 5 μg/ml of Benzyl Ester of clavulanic acid (Klebsiella aerogenes A [5]): 1.9 | M.I.C., Ampicillin + 5 μg/ml of Methyl Ester of clavulanic acid (Klebsiella aerogenes A [5]): 1.9 | M.I.C., Ampicillin + 5 μg/ml of Benzyl Ester of clavulanic acid (Klebsiella aerogenes 62): 3.9 | M.I.C., Ampicillin + 5 μg/ml of Methyl Ester of clavulanic acid (Klebsiella aerogenes 62): 3.9
